In patent US20110052623A1, “DRIED MICROBIAL CELLS OR MICROORGANISM EXTRACT CONTAINING STABILIZED (SS)-S-ADENOSYL-L-METHIONINE AND METHOD FOR PRODUCTION OF THE DRIED MICROORGANISM CELL OR MICROORGANISM EXTRACT” (KANEKA CORPORATION, priority 2007, published 2011):
Counter-ions that a name gives are not always drawn. Like-named read-outs stand apart in the source and are kept apart here.

Experiments:
[1] = Stabilizing agent: dried yeast cells containing SAM with added compound preserved at 25° C. for 7 days; format: physicochemical
Protocol: The yeast cells obtained in the Reference Example were suspended in deionized water in one-sixth (⅙) of the amount of the culture solution. Each of the compounds listed in table 3 (30% by weight in terms of dry weight) was separately added to the resultant, followed by freezing at −80° C. and lyophilization. Thus, dried yeast cells containing SAM were obtained.

[2] = Bioabsorbability of spray-dried yeast cells containing (SS)-SAM, oral administration (Example 5); format: in vivo; details: SD rats, 20 g/L SAM at 5 ml/kg b.w.
Protocol: The obtained dried yeast cells were matured in the presence of silica gel at 40° C. for 7 days. Thus, dried yeast cells containing (SS)-SAM were obtained. The obtained dried yeast cells containing (SS)-SAM were suspended in distilled water to result in an SAM concentration of 20 g/L. The resultant was orally administered to SD rats (male, 17 weeks old) at a dose of 5 ml/kg b.w. […] The resultant was orally administered to rats in the same manner such that comparative control examples were obtained. Before administration and 1, 2, 3, 5, or 8 hours after administration, blood collection was carried out from the jugular vein without any anesthesia and with the use of heparin as an anticoagulant. The plasma components were collected via centrifugation. A 0.4 g/L trichloroacetic acid aqueous solution (40 μL) was added to the obtained plasma (200 μl), followed by mixing and centrifugation. The SAM concentration in the obtained supernatant was analyzed by HPLC.

[3] = Bioabsorbability of dried yeast cells containing (SS)-SAM, oral administration (Example 4); format: in vivo; details: SD rats, 20 g/L SAM at 5 ml/kg b.w.
Protocol: The resultant was orally administered to rats in the same manner such that comparative control examples were obtained. Before administration and 1, 2, 3, 5, or 8 hours after administration, blood was collected from the jugular vein without any anesthesia and with the use of heparin as an anticoagulant. The plasma components were collected via centrifugation. A 0.4 g/L trichloroacetic acid aqueous solution (40 μL) was added to the obtained plasma (200 μL), followed by mixing and centrifugation. The SAM concentration in the obtained supernatant was analyzed by HPLC. FIG. 1 and table 4 show the results.

[4] = compound added at 30% by weight to dried yeast cells, 25° C., 7 days

| Molecule | SAM residual rate [1, 4] | other results |
| --- | --- | --- |
| C[C@@H](O)[C@H](N)C(=O)O [L-threonine] | 92.0% |  |
| OC[C@@H](O)[C@@H](O)[C@H](O)[C@H](O)CO [Mannitol] | 86.8% |  |
| C[C@H](N)C(=O)O [L-alanine] | 86.9% |  |
| OC[C@@H](O)[C@H](O)[C@H](O)[C@@H](O)CO [Dulcitol] | 92.2% |  |
| OC[C@H]1O[C@@](CO)(O[C@H]2O[C@H](CO)[C@@H](O)[C@H](O)[C@H]2O)[C@@H](O)[C@@H]1O [Sucrose] | 93.8% |  |
| O=C1O[C@H]([C@@H](O)CO)C(O)=C1O [L-ascorbic acid] | 90.0% |  |
| Fructo-oligosaccharide | 85.9% |  |
| O.O.O.O.O.O.O.O=S(=O)([O-])[O-].[Fe+2] [Ferrous sulfate heptahydrate] |  | SAM residual rate [1]: 90.4% |
| O=P(O)(O)O [Phosphoric acid] | 89.3% |  |
| O=C(O)c1cccnc1 [Nicotinic acid] | 102.3% |  |
| O=S(=O)([O-])[O-].[Mn+2] [Manganese sulfate] | 95.0% |  |
| O=C([O-])[C@H](O)[C@@H](O)[C@H](O)[C@H](O)CO.[Na+] [Sodium gluconate] | 89.1% |  |
| NCC(=O)O [Glycine] | 97.5% |  |
| Cellulose | 92.0% |  |
| CSCC[C@H](N)C(=O)O [L-methionine] | 100.9% |  |
| OC[C@@H](O)[C@@H](O)[C@H](O)[C@@H](O)CO [Sorbitol] | 98.2% |  |
| O=C1O[C@H](CO)[C@@H](O)[C@H](O)[C@H]1O [Glucono-δ-lactone] | 100.7% |  |
| OC[C@H]1O[C@@H](O[C@H]2[C@H](O)[C@@H](O)[C@H](O)O[C@@H]2CO)[C@H](O)[C@@H](O)[C@@H]1O [D-cellobiose] | 93.1% |  |
| O[C@H]1[C@H](O)[C@@H](O)[C@H](O)[C@@H](O)[C@H]1O [Inositol] | 96.2% |  |
| Glycogen | 94.6% |  |
| CC(C)[C@H](N)C(=O)O [L-valine] | 89.7% |  |
| NC(=O)CC[C@H](N)C(=O)O [L-glutamine] | 94.5% |  |
| Ferric chloride hexahydrate | 95.7% |  |

| Molecule | SAM residual rate [1, 4] | other results |
| --- | --- | --- |
| Cl.N [Ammonium chloride] | 95.6% |  |
| C[S+](CC[C@H](N)C(=O)[O-])C[C@H]1O[C@@H](n2cnc3c(N)ncnc32)[C@H](O)[C@@H]1O.Cc1ccc(S(=O)(=O)O)cc1.O=S(=O)(O)O.O=S(=O)(O)O (stereo partly drawn) [SAM/p-toluenesulfonic acid/sulfate] |  | Area under SAM concentration curve (AUC) ([2]; AUC at 8 hours after administration, dried yeast cells of Example 5): 3200 ng·h/mL; Maximum SAM concentration in plasma ([2]; dried yeast cells of Example 5 (spray dried)): 0.771 µg/mL; Area under SAM concentration curve (AUC) ([3]; AUC at 8 hours after administration, dried yeast cells of Example 1): 3200 ng·h/mL; Maximum SAM concentration in plasma ([3]; dried yeast cells of Example 1 (lyophilized)): 0.771 µg/mL |
| O=C(O)[C@H](O)[C@@H](O)C(=O)O [L-tartaric acid] | 88.1% |  |
| N.O=P(O)(O)O [Ammonium dihydrogen phosphate] |  | SAM residual rate [1]: 93.6% |
| NC(=O)c1cccnc1 [Nicotinic-acid amide] | 97.3% |  |
| Cc1ncc(C[n+]2csc(CCO)c2C)c(N)n1 [thiamine hydrochloride] | 99.5% |  |
| N.N.O=S(=O)(O)O [Ammonium sulfate] | 87.5% |  |
| O=C[C@H](O)[C@@H](O)[C@@H](O)[C@H](O)CO [Galactose] | 99.7% |  |
| Isomalto-oligosaccharide | 84.9% |  |
| O=S(=O)([O-])[O-].[Cu+2] [Copper sulfate] |  | SAM residual rate [1]: 94.2% |
| O=S(=O)([O-])[O-].[Zn+2] [Zinc sulfate] |  | SAM residual rate [1]: 94.3% |
| CC(=O)N[C@H]1C(O)O[C@H](CO)[C@@H](O)[C@@H]1O (stereo partly drawn) [N-acetylglucosamine] | 97.6% |  |
| O=C(CO)[C@@H](O)[C@H](O)[C@@H](O)CO [L-sorbose] | 88.4% |  |
| [Ca+2].[Cl-].[Cl-] [Calcium chloride] |  | SAM residual rate [1]: 93.7% |
| OC[C@@H](O)[C@@H](O[C@@H]1O[C@H](CO)[C@H](O)[C@H](O)[C@H]1O)[C@H](O)[C@@H](O)CO [Lactitol] | 91.3% |  |
| Inulin | 93.1% |  |
| O=S(=O)([O-])[O-].[Mg+2] [Magnesium sulfate] |  | SAM residual rate [1]: 101.6% |
| O=C(O)CC(O)C(=O)O (racemic) [DL-malic acid] | 99.1% |  |
| CCC(N)C(=O)O (racemic) [DL-α-amino-n-butyrate] | 96.8% |  |
| OC[C@@H](O)[C@H](O)[C@H](O)[C@@H](O)CO [Galactitol] | 90.7% |  |
| O=C(O)CC(O)(CC(=O)O)C(=O)O [Citric acid] | 96.6% |  |
| CC(C)C[C@@H](N)C(=O)O [D-leucine] | 91.9% |  |
